Tested on: cells
Experiment: Cell cycle analysis (G2/M arrest)
Format: cell-based
Conditions: single substances; no data given

## N=C(N)c1ccc(OCCCCCOc2ccc(C(=N)N)cc2)cc1 [pentamidine]
  effect on the cell cycle: maintain cells in the G2/M cell cycle

— patent US8110583B2, “Tetrahydroquinoline derivatives” (Merck Patent GmbH, priority 2005, dated 2012)
